Entries after “also recorded” stand apart in the source; their conditions may differ.

We go through 23 compounds from paper PMC6651555, “Cathepsin L Inhibitors with Activity against the Liver Fluke Identified From a Focus Library of Quinoxaline 1,4-di-N-Oxide Derivatives” (Molecules, 2019).

In one test the test system is FhCL3. As to the kind of experiment: FhCL3 inhibition screening, IC50 and slow-binding (fluorogenic substrate Tos-GPR-AMC). The class given is biochemical, Fasciola hepatica. The note with it: 10 µM compound, 20 min preincubation, relative to enzyme alone; SD less than 10%. The protocol:
(§1) Each compound was completely dissolved in dimethylsulfoxide (DMSO) to a concentration of 10 mM to prepare the stock solutions. To evaluate the inhibition of FhCL1 and FhCL3 by quinoxaline 1,4-di-N-oxide derivatives, nanomolar concentrations of each enzyme was incubated with compounds at 10 μM. Briefly, each enzyme and compound were preincubated 20 min in a 96-well plate in 0.1 M sodium phosphate buffer pH 6, 1 mM DTT, and 1 mM EDTA at room temperature. The reaction was initiated by adding 20 μM of substrate and enzyme activity was measured by the increase in aminomethyl coumarin (AMC) fluorescence as peptide substrates were hydrolyzed (Z-VLK-AMC for FhCL1 and Tos-GPR-AMC for FhCL3), at an excitation wavelength of 340 nm and emission wavelength of 440 nm using a spectrofluorometer (Varioskan Thermo, Waltham, MA, USA). Enzyme activity was expressed as RFU/s (relative fluorescence units of AMC released per second). Each compound was tested in triplicate. A control reaction without enzymes was performed to check for the occurrence of non-catalyzed reactions between substrates and inhibitors and a spectrum from 300 to 450 nm wavelength was done for each quinoxaline 1,4-di-N-oxide derivative to verify that none of them had optical activity in the measurement range. The percentage of enzyme inhibition was calculated as 100 − (vi/vo) × 100, where vi and vo correspond to the initial rate of AMC fluorescence increase (RFU/s) with and without inhibitor, respectively.
(§2) To calculate the IC50 values, compounds were incubated with each enzyme at seven different concentrations; 0.625, 1.25, 2.5, 5, 10, 20, and 40 μM. Then, the enzyme activity was measured in a 96-well plate as described before. We plotted initial rates (RFU/s) versus log10 of inhibitor concentrations and obtained the IC50 values by fitting the data to a sigmoid curve. We also carried out slow-binding assays to evaluate the time-dependence of the inhibition. Each compound was incubated at 10 μM with the enzyme for increasing lengths of time; 3 to 120 min and the percentage of inhibition at each time point was determined as described before. We calculated the inhibition percentage of the leader compounds at 10 μM for HsCL1. The enzyme was preincubated for 20 min with the compounds and the activity was measured in a 96-well plate in 400 mM sodium acetate, pH 5.5, with 4 mM EDTA, 8 mM DTT, and 20 μM of substrate Z-VLK-AMC. The percentage of enzyme inhibition was calculated as described for FhCL1 and FhCL3. We determined the IC50 value for C17 against HsCL by incubating the enzyme with four different concentrations of the compound 0, 10, 25, and 50 μM and measuring the activity as described before. We plotted initial rates (RFU/s) versus log10 of inhibitor concentration and obtained the IC50 value by fitting the data to a sigmoid curve.

Another test deals with F. hepatica NEJ. The experiment in a line: In vitro culture of NEJ and treatment with inhibitors (motility score). The class given is cell-based, Fasciola hepatica. The settings on record: 50 μM compound, over 96 h. The protocol: F. hepatica metacercariae were acquired from Instituto Miguel C. Rubino (DILAVE, MGAP, Uruguay). NEJ were obtained by in vitro excystement as previously described with minor modifications. Briefly, metacercariae were incubated with 1% sodium hypochlorite for 5 min at room temperature to remove the outer cyst wall and then washed several times with PBS. Metacercariae activation was carried out in a medium prepared by mixing equal volumes of solution A (0.4% sodium taurocholate, 120 mM NaHCO3, 140 mM NaCl, pH 8.0) and solution B (50 mM HCl and 33 mM L-cysteine), and incubating at 39 °C until the NEJ begin to emerge (around 3–4 h). A 100 μm filter was used to retain the cyst wall. Collected NEJ were washed three times with RPMI-1640 supplemented with 200 U/mL Penicillin G sulfate, […] streptomycin sulfate, 500 ng/mL amphotericin B, 10 mM HEPES, counted and divided into groups of around 20 parasites that were transferred to 96 wells in tissue culture plates. Parasites were maintained at 37 °C, 5% CO2 in modified Basch’s medium. At day 1, each tested compound was added at a concentration of 50 μM in 0.5% DMSO. Also, 0.5% of DMSO was added to the control groups. Each condition was tested in duplicate. NEJ behavior was monitored under a light microscope (Olympus BX41, Hamburg, Germany), every day each well was recorded for a minute in order to assess parasite motility and registered using the following score: 3—normally active; 2—reduced activity (sporadic movement); 1—immotile (dead, adapted from). Control parasites were maintained in culture for seven days.

A further test has as its target T1, FhCL1 (Fasciola hepatica, UniProt Q7JNQ9).
T1 construct: made in house; host or cells: Hansenula polymorpha (yeast)
The experiment in a line: FhCL1 inhibition screening, IC50 and slow-binding (fluorogenic substrate Z-VLK-AMC). The class given is biochemical. The settings on record: read-out: %Inh FhCL1, 10 µM compound, 20 min preincubation, relative to enzyme alone; SD less than 10%. The protocol: as §1, §2

T1 sequence (Q7JNQ9 entry or part of it): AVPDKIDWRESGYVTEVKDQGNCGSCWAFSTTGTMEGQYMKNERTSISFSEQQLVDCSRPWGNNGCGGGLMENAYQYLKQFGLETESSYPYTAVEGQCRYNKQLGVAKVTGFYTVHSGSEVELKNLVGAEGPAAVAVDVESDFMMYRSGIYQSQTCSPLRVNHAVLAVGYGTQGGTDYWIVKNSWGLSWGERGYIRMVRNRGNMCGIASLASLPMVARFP

As to `C=CCNC(=S)N/N=C/c1ccc2c(c1)[n+]([O-])c(C(=O)OCC)c(C)[n+]2[O-]` [Compound C15], in the test on FhCL3, the “%Inh FhCL3” value is on record as 58%. In addition, the “Effect on NEJ motility / fasciolicide activity in vitro” value in the test with F. hepatica NEJ is given as “did not have activity against the parasites”. The inhibition at 10 µM at FhCL1 amounted to 38%.
With `CCN(C/C=C/c1ccccc1)c1ccc2c(c1)[n+]([O-])c(C#N)c(N)[n+]2[O-]` [Compound C8], the “%Inh FhCL3” value in the test on FhCL3 was 45%. Also, the inhibition at 10 µM on FhCL1 stood at 24%.
On to `Cc1c(C(=O)c2ccccc2)[n+]([O-])c2cc(F)c(F)cc2[n+]1[O-]` [Compound C26], for which the “%Inh FhCL3” value in the test on FhCL3 came out at 17%. The inhibition at 10 µM at FhCL1 is 41%.
The matching figures for `C=CCNC(=S)N/N=C/c1ccc2c(c1)[n+]([O-])c(C#N)c(N)[n+]2[O-]` [Compound C5]: 39% and 20%.
The like results for `N#Cc1c(N)[n+]([O-])c2cc(Cl)c(Cl)cc2[n+]1[O-]` [Compound C9] were, in that order, 0% and 15%.
Turning to `CCOC(=O)c1c(C)[n+]([O-])c2ccccc2[n+]1[O-]` [Compound C14], the “%Inh FhCL3” value in the test on FhCL3 turned out to be 5%. For the same compound, the inhibition at 10 µM at FhCL1 is 28%.
The like results for `Cc1c(Sc2ccccc2)[n+]([O-])c2cc(Cl)c(Cl)cc2[n+]1[O-]` [Compound C16] were, in that order, 22% and 35%.
The matching figures for `Cc1c(C(=O)Nc2ccccc2)[n+]([O-])c2cc(CN3CCN(C/C=C/c4ccccc4)CC3)ccc2[n+]1[O-]` [Compound C22]: 49% and 23%.
The matching figures for `O=C(c1ccccc1)c1c(C(F)(F)F)[n+]([O-])c2cc(F)c(F)cc2[n+]1[O-]` [Compound C28]: 38% and 0%.
Regarding `O=Cc1c[n+]([O-])c2ccccc2[n+]1[O-]` [Compound C2], the “%Inh FhCL3” value in the test on FhCL3 was determined as 0%. For the same compound, the inhibition at 10 µM on FhCL1 worked out at 21%.
The matching figures for `C=CCNC(=S)N/N=C/c1ccc2c(c1)[n+]([O-])c(C(=O)Nc1ccccc1)c(C)[n+]2[O-]` [Compound C20]: 0% and 72%.
`CCOC(=O)c1c(-c2ccccc2)[n+]([O-])c2cc(Cl)c(Cl)cc2[n+]1[O-]` [Compound C19]: the “%Inh FhCL3” value in the test with FhCL3 is 35%. Also, in the test with F. hepatica NEJ, the “Effect on NEJ motility / fasciolicide activity in vitro” value is “progressive decrease of parasite motility starting between 24 and 96 h of culture; also recorded: strong fasciolicide activity in vitro”. At FhCL1, the inhibition at 10 µM is 54%.
On to `Cc1c(C)[n+]([O-])c2cc(/C=N/NC(=O)NCCc3ccccc3)ccc2[n+]1[O-]` [Compound C11], for which the “%Inh FhCL3” value with FhCL3 turned out to be 32%. Besides, the “Effect on NEJ motility / fasciolicide activity in vitro” value with F. hepatica NEJ is “did not have activity against the parasites”. For the same compound, the inhibition at 10 µM on FhCL1 amounted to 56%.
In the case of `N#Cc1c(N)[n+]([O-])c2ccccc2[n+]1[O-]` [Compound C3], the “%Inh FhCL3” value with FhCL3 was found to be 0%. For the same compound, the inhibition at 10 µM on FhCL1 was determined as 30%.
As for `Cc1c(C(=O)NCc2ccccc2)[n+]([O-])c2ccccc2[n+]1[O-]` [Compound C25], in the test on FhCL3, the “%Inh FhCL3” value stood at 40%. Moreover, at FhCL1, the inhibition at 10 µM came out at 47%.
The like results for `COC(=O)N/N=C/c1ccc2c(c1)[n+]([O-])c(C)c(C)[n+]2[O-]` [Compound C10] were, in that order, 3% and 13%.
The like results for `Cc1c[n+]([O-])c2ccccc2[n+]1[O-]` [Compound C1] were, in that order, 8% and 1%.
On to `COC(=O)N/N=C/c1ccc2c(c1)[n+]([O-])c(C#N)c(N)[n+]2[O-]` [Compound C4], for which the “%Inh FhCL3” value in the test with FhCL3 was found to be 27%. Besides, the inhibition at 10 µM at FhCL1 was 0%.
As for `CCCCNC(=O)N/N=C/c1ccc2c(c1)[n+]([O-])c(C#N)c(N)[n+]2[O-]` [Compound C6], in the test with FhCL3, the “%Inh FhCL3” value came out at 27%. Besides, the “Effect on NEJ motility / fasciolicide activity in vitro” value with F. hepatica NEJ is on record as “did not have activity against the parasites”. Further, the inhibition at 10 µM at FhCL1 turned out to be 59%.
`CCN(C/C=C/c1ccccc1)c1ccc2c(c1)[n+]([O-])c(C(=O)Nc1ccccc1)c(C)[n+]2[O-]` [Compound C21]: the “%Inh FhCL3” value in the test with FhCL3 was found to be 54%. Besides, the “Effect on NEJ motility / fasciolicide activity in vitro” value in the test on F. hepatica NEJ is “progressive decrease of parasite motility starting between 24 and 96 h of culture”. The inhibition at 10 µM at FhCL1 came to 47%.
Regarding `C=CCn1c(-c2ccc(Cl)cc2)csc1=NN=Cc1ccc2c(c1)[n+]([O-])c(C)c(C)[n+]2[O-]` [Compound C13], the “%Inh FhCL3” value in the test on FhCL3 came to 2%. In addition, on FhCL1, the inhibition at 10 µM was 34%.
The like results for `O=C(c1ccccc1)c1c(C(F)(F)F)[n+]([O-])c2ccccc2[n+]1[O-]` [Compound C27] were, in that order, 22% and 38%.
The matching figures for `C=CCN1C(=O)CS/C1=N/N=C/c1ccc2c(c1)[n+]([O-])c(C)c(C)[n+]2[O-]` [Compound C12]: 22% and 0%.
